Several values for one entry are separate records, joined by “and”; a condition that tells them apart may be missing. Equal values may be shown once.
Columns and labels:
Format in all cases: cell-based
[1] = test system: Escherichia coli (10536 strain); test: 15 second contact kill test versus E. coli (actives in water, mean bacterial survival NMBS); details: for MBC (minimum biocidal concentration of antimicrobial components): Table 27; for NMBS: no alcohol, 15 s
Description: 15 Second Contact Kill Test Versus E. Coli and S. Aureus
Antimicrobial efficacy is tested against a representative pathogenic bacterial organism, Gram negative Escherichia coli. Concentrations of actives are expressed in terms of the percentage weight/volume (% w/v) throughout Example 1.
An overnight culture of Escherichia coli (10536 strain) was prepared in 50 ml total volume of TSB broth, grown for ca. 18 hrs at 37° C. and shaken at 150 rpm. 1 ml of this overnight E. coli culture was transferred to 50 ml of fresh TSB broth and incubated at 37° C. at 150 rpm for ca. 4 hours. This culture was separated into equal volumes and centrifuged at 4000 rpm for 15 minutes, washed with sterile saline (0.85% NaCl), centrifuged once more and re-suspended in saline to give a final concentration of 0.8 OD620 equivalent to about 10^8 cells per milliliter for this particular organism. Here, OD620 indicates the absorbance of a sample in a cuvette of 1.0 cm path length at a wavelength of 620 nm. This bacterial stock was used for assaying against antimicrobial actives (in triplicate). S. Aureus Bacterial Stock
The following assay describes the testing of 8 materials using 6 dilutions across half of a 96-well micro titre plate (MTP). Using this approach it is possible to assay 16 actives (without replicates) with one full dilution plate, replicating this set up in two halves of the plate columns, 1-6 and 7-12. 1M solutions of the test actives were prepared in dimethylsulphoxide (DMSO). […] Aliquots (270 μl) of the materials at 1.11 times the final concentration were dispensed into the wells of the MTP along one column (A1-H1). This MTP was labelled as the “Screening plate”. In another MTP, labelled as the “Dilution plate”, […] of D/E neutralising solution from DIFCO Composition was added to column 1. The composition of the neutralising solution was as follows: pancreatic digest of casein, 5.0 g/L; Yeast Extract, 2.5 g/L; Dextrose, 10 g/L, sodium thioglycollate, 1.0 g/L, sodium thiosulphate, 6.0 g/L; sodium bisulphite, 2.5 g/L; Polysorbate 80, 5.0 g/L; lecithin 7.0 g/L; bromocresol purple, 0.02 g/L with a pH in the range 7.6±0.2. 270 μl of tryptone diluent solution was added to all the remaining wells of the Dilution MTP (columns 2-6). Bacterial stock (30 μl) was then added to the prepared 270 μl of the solution of actives in the Screening Plate and mixed, using a multichannel pipette with 8 tips to aspirate and dispense the same volume of bacterial stock in parallel to 8 wells in rows A-H. After a contact time of 15 seconds, the mixtures were quenched by transferring 30 μl volumes of the mixtures into the 270 μl D/E neutralising solution in the prepared dilution plate, using aspiration to mix. After exactly 5 minutes in the D/E neutralising solution, 30 μl volumes were transferred from column 1 to column 2 of the Dilution MTP and mixed, before transferring further 30 μl volumes from column 2 into column 3. This process was repeated serially diluting the bacteria across the plate to column 6. 30 μl volumes from each well in the Dilution MTP were transferred onto pre-labelled segment of Tryptone Soya Agar (TSA) plates starting from the lowest bacterial concentration (highest dilution, column 6) to the highest bacterial concentration (column 1). The TSA plates were allowed to stand for ca. 2 hours so that the 30 μl inocula spots could dry and the plates were then inverted and incubated overnight at 37° C. before enumerating the bacterial colonies at the labelled dilutions to determine the effects of the actives on bacterial growth. Calculation of Results Mean bacterial survival numbers NMBS (expressed in Log CFU/ml) are obtained by first determining the segment of the TSA plate where the number of bacterial colonies is countable.

[2] = test system: Escherichia coli (E. coli—ATCC #10536); test: Automated assessment of efficacy in surfactant base (2.85% sodium cocoyl glycinate and 1.85% sodium lauroamphoacetate, pH 10.0), 15 seconds exposure; details: for Δ OD 450 nm = OD450 (time = 16 hours) − OD450 (time zero), Mean / Δ OD 590 nm OD590 (time = 16 hours) − OD590 (time zero), Mean / No. of replicates showing growth (out of 4): alone, model surfactant solution; for MBC (minimum biocidal concentration): in 2.85% sodium cocoyl glycinate + 1.85% sodium lauroamphoacetate solution at pH 10, E. coli
Description: Test Methodology for Automated Assessment of Efficacy in Surfactant Base Microbiocidal Activity of Actives as Per the Invention in a Model Surfactant Medium Test Methodology for Automated Assessment of Efficacy in Surfactant Base In these examples, the efficacy of combinations of actives were tested in a surfactant cleansing formulation comprising 2.85% sodium cocoyl glycinate and 1.85% sodium lauroamphoacetate. This corresponds to a 50% in use dilution with water of a neat formulation containing 5.7% cocoyl glycinate and […] % sodium, lauroamphoacetate during hand washing. Solutions were prepared such that the concentrations of the surfactant components and test actives were 1.1× the final desired concentration in order to allow for dilution with the bacterial inoculum in the test. The solutions were manually adjusted to pH 10.0 by dropwise addition of sodium hydroxide solution, as measured with a pH meter at ambient temperature. The efficacy of the combinations of the present invention was determined against Escherichia coli (E. coli—ATCC #10536), at a concentration of approximately 1×10^8 bacteria per mL. Tests were conducted using standard microtiter plate assays using an automated liquid handling system. 270 μl of the surfactant test solution was pipetted into each well of the microtitre plate and 30 μl of the bacterial suspension was then added. Alter exactly 15 seconds of bacterial exposure, a 30 μl volume of bacterial cells was withdrawn and transferred to 270 μl of D/E quench solution. After 5 minutes in the D/E quench, the optical density (OD) was measured for each plate in turn at two specific wavelengths (450 nm and 590 nm). These provide a dual check of antimicrobial activity, as the OD450 reading is specific for the yellow colour of D/E quench when bacterial growth is observed, whereas OD590 is specific for the initial purple colour of the D/E quench which is retained if no bacterial growth is observed. After the time zero OD measurements, plates were then incubated at 37° C. overnight (16 hours) before repeating the OD measurements. Delta OD values were calculated by subtracting […]. Bacterial growth is observed as an increase in OD450 and a decrease in ΔOD590. To identify antibacterially efficacious systems (those preventing appreciable bacterial growth after incubation), the following threshold changes in OD readings have been adopted: if (1). OD450 increases by less than 0.2 absorbance unit on incubation and (2). OD590 decreases by less than 0.35 unit on incubation. Conversely, where OD450 increases by more than 0.2 AU and OD590 decreases by more than 0.35 unit after incubation, corresponding to a colour shift from purple to yellow, the test system allows bacterial growth and is not deemed efficacious. Four replicate measurements in the same plate have been made for each test system. The number of replicate wells showing either bacterial growth or no growth is also readily assessed by eye by following the colour change. Dose responses for individual components and binary mixtures of actives at a fixed concentration ratio were generated by sequential dilution of liquors with further surfactant solution to obtain a series of endpoints. […] In some selected cases, the combinations were also tested at the weight ratio 1:1.

[3] = test system: Escherichia coli (E. coli—ATCC #10536); test: Synergy test: high resolution MBC microtiter plate assay, phosphate buffer containing 35% dipropylene glycol, 15 seconds contact; details: E. coli 10536; for SI (Synergy Index): at Qa and Qb, less than one = synergy; for MBC of the component acting alone (QA / QB; Qa or Qb where the other component is 0): complete kill in 15 seconds
Description: The concentrations and ratios may also vary under different test conditions or with different test methods.
One measure of synergy is the industrially accepted method described by Kull, F. C.; Eisman, P. C.; Sylwestrowicz, H. D, and Mayer, R. L., in Applied Microbiology 9:538-541 (1961), using the ratio determined by the formula: […]=Synergy Index (“SI”) wherein; QA=concentration of compound A (first component) in percent, acting alone, which produced an end point (MBC of Compound A). Qa=concentration of compound A in percent, in the mixture, which produced an end point. QB=concentration of compound B (second component) in percent, acting alone, which, produced an end point (MBC of Compound B). Qb=concentration of compound B in percent, in the mixture, which produced an end point.
When the sum of Qa/QA and Qb/QB is greater than one, antagonism is indicated. […] The lower the SI, the greater is the synergy shown by that particular mixture. The minimum biocidal concentration (MBC) of a microbicide is the lowest concentration tested under a specific set of conditions that provides complete kill of the tested microorganisms.
Synergy tests were conducted using standard microliter plate assays with phosphate buffer containing 35% dipropylene glycol (DPG). In this method, a wide range of combinations of chemicals was tested by conducting high resolution MBC assays of Component (A) in the presence of various concentrations of Component (B). High resolution MBCs were determined by adding varying amounts of microbicide to one column of a microliter plate and doing subsequent […] dilutions using an automated liquid handling, system to obtain a series of closely spaced endpoints. The MBC plate was inoculated one column at a time with the test microorganism. An aliquot of the inoculated well was transferred at 15 seconds to a plate containing a neutralizing agent (D/E Neutralizing Broth), mixed and held for 5 minutes before being transferred to a growth plate containing trypticase soy broth (TSB). The TSB plate was incubated at 37° C. and read for the presence/absence of growth at 24 hours. The lowest level tested that provided complete kill (as evidenced by no growth in the microtitre plate) of the test organisms in 15 seconds is the minimum biocidal concentration (MBC).
The synergy of the combinations of the present invention was determined against a bacterium, Escherichia coli (E. coli—ATCC #10536), at a concentration of approximately 1×10^8 it bacteria per mL. This microorganism is representative of natural contaminants in many consumer and industrial applications.

[4] = Table 28, E. coli, component alone

| SMILES | MBC (minimum biocidal concentration of antimicrobial components) ([1]; component alone) [% w/v] | Antimicrobial alcohol MBC [1, 4] | Δ OD 450 nm = OD450 (time = 16 hours) − OD450 (time zero), Mean ([2]; 0.2% w/v) | Δ OD 590 nm OD590 (time = 16 hours) − OD590 (time zero), Mean ([2]; 0.2% w/v) | Δ OD 450 nm = OD450 (time = 16 hours) − OD450 (time zero), Mean ([2]; 0.3% w/v) | Δ OD 590 nm OD590 (time = 16 hours) − OD590 (time zero), Mean ([2]; 0.3% w/v) | No. of replicates showing growth (out of 4) ([2]; 0.5% w/v) | Δ OD 450 nm = OD450 (time = 16 hours) − OD450 (time zero), Mean ([2]; 0.5% w/v) | Δ OD 590 nm OD590 (time = 16 hours) − OD590 (time zero), Mean ([2]; 0.5% w/v) | Δ OD 450 nm = OD450 (time = 16 hours) − OD450 (time zero), Mean ([2]; […] w/v) | Δ OD 590 nm OD590 (time = 16 hours) − OD590 (time zero), Mean ([2]; […] w/v) | MBC (minimum biocidal concentration) [2] [% w/v] | SI (Synergy Index) [3] | MBC of the component acting alone (QA / QB; Qa or Qb where the other component is 0) [3] | also measured |
| --- | --- | --- | --- | --- | --- | --- | --- | --- | --- | --- | --- | --- | --- | --- | --- |
| CC1=CC[C@@H](CO)[C@H](C)C1 (relative stereo) [floralol, Trans-4,6-dimethyl-3-Cyclohexene-1-methanol] | 0.3 | 0.3 % (w/v) | −1.43 | 0.35 | −1.20 | 0.55 | 0 | −0.06 | 0.09 | −0.29 | 0.23 | 0.4 |  |  |  |
| Oc1ccc(Cc2ccccc2)cc1 [4-benzylphenol, 4-benzyl phenol] | 0.05 |  |  |  |  |  |  |  |  |  |  |  |  |  | NMBS ([1]; 0.0125% 4-benzylphenol, E. coli): 7.75 log CFU/ml; NMBS ([1]; 0.05% 4-benzylphenol, E. coli): 0.00 log CFU/ml; Phenolic compound MBC [1, 4]: 0.5 % (w/v); NMBS ([1]; […] 4-benzylphenol, E. coli): 4.20 log CFU/ml |
| Oc1ccc2c(c1)CCCC2 [5,6,7,8-tetrahydronaphthalen-2-ol] |  |  | −1.55 | 0.36 |  |  |  |  |  | −1.60 | 0.31 |  | 1.00 | 0.8 weight % and 0.6 weight % | No. of replicates showing growth (out of 4) ([2]; 0.1% w/v): 4; Δ OD 450 nm = OD450 (time = 16 hours) − OD450 (time zero), Mean ([2]; 0.1% w/v): −1.56; Δ OD 590 nm OD590 (time = 16 hours) − OD590 (time zero), Mean ([2]; 0.1% w/v): 0.32; No. of replicates showing growth (out of 4) ([2]; 0.2% w/v): 4; No. of replicates showing growth (out of 4) ([2]; […] w/v): 4 |
| C=C(C)[C@@H]1CC=C(CO)CC1 [(4S)-(4-(prop-1-en-2-yl)cyclohex-1-enyl)methanol] |  |  |  |  |  |  |  |  |  |  |  | 0.4 | 1.00 | 0.5 weight % and 0.3 weight % and 0.6 weight % |  |
| CC1CCC(CO)C(C)C1 (centres unmarked) [dihydrofloralol, 2,4-Dimethylcyclohexylmethanol] | 0.5 | 0.5 % (w/v) | −1.39 | 0.41 | −1.15 | 0.60 | 0 | −0.06 | 0.10 | −0.28 | 0.28 | 0.4 |  |  | No. of replicates showing growth (out of 4) ([2]; 0.3% w/v): 4 |
